Laboratory results published in patent publication US8648090B2, “Indole alkaloid derivatives having opioid receptor agonistic effect, and therapeutic compositions and methods relating to same” (National University Corporation Chiba University, priority 2007, dated 2014).
Like-named read-outs stand apart in the source and are kept apart here.

Tests used:
guinea pig ileum = assay: Twitch contraction induced by electrical stimulation in guinea pig isolated ileum (Magnus assay); settings: for Emax / EC50: Cavia porcellus; for EC50: read-out: pD2 value (−log M) (converted); for Relative Potency (%): against morphine (100); for Inhibitory activity (%): maximum inhibition as percentage of that by morphine, intrinsic activity on opioid receptors; for pD2 value (−log M): negative logarithm of EC50, mean ± SEM of five or six animals; for Maximum inhibition (%): response at plateau, twitch contraction regarded as 100%
Procedure: The opioid agonistic effect was evaluated in an experiment involving twitch contraction induced by electrical stimulation of guinea pig ileum.
The guinea-pig ileum was dissected and placed in Krebs-Henseleit solution (in mM: NaCl, 112.08; KCl, 5.90; CaCl2, 1.97; MgCl2, 1.18; NaH2PO4, 1.22; NaHCO3, 25.00, and glucose, 11.49). The ileum was placed under 1 g tension in a 5 ml organ bath containing the nutrient solution. The bath was maintained at 37° C. and continuously bubbled with a mixture of 95% O2 and 5% CO2. Tissues were stimulated by a platinum needle-ring (the ring was placed 20 mm above the base of a 5 mm long needle) electrode. After equilibration, the ileum was transmurally stimulated with monophasic pulses (0.2 Hz and 0.1 ms duration) by a stimulator (SEN-7203, Nihon Kohden, Tokyo, Japan). Contractions were isotonically recorded by using a displacement transducer (NEC Type 45347, San-ei Instruments Ltd., Tokyo, Japan). The effects of drug treatments on the twitch contractions evoked by transmural stimulation elicited through the ring electrodes were examined. The height of the twitch response to transmural stimulation was measured before and after the drug challenge. The responses were expressed as % inhibition of the twitch response to the transmural stimulation before the drug challenge.
Male albino guinea pigs (Japan SLC) weighing 320-550 g were used. Animals were housed in a temperature-controlled room at 24° C. with lights on from 07:00-19:00 and had free access to food and water. The guinea-pig ileum was dissected and placed in Krebs-Henseleit solution (in mM: NaCl, 112.08; KCl, 5.90; CaCl2, 1.97; MgCl2, 1.18; NaH2PO4, 1.22; NaHCO3, 25.00, and glucose, 11.49). The ileum was set up under 1 g of tension in 5 mL of an organ bath containing the nutrient solution. The bath was maintained at 37° C. and continuously bubbled with a gas mixture of 95% O2 and 5% CO2. At the start of each experiment, the maximum response to acetylcholine (3 μM) was obtained for each tissue to check its suitability. Tissues were stimulated through platinum needle-ring (a ring was placed 20 mm above the base of a needle 5 mm in length) electrodes using square wave pulses of supramaximal voltage. The ileum was transmurally stimulated with monophasic pulses (0.2 Hz) at 0.3 ms duration by a stimulator (SEN-7203, Nihon Kohden, Tokyo, Japan). Contractions were isotonically recorded with a displacement transducer (NEC, San-ei Instruments Ltd., Type 45347), a DC strain amplifier (San-ei 6M92), and a DC recorder (Hitachi, Mod 056, Tokyo, Japan). All concentration-response curves were constructed in a cumulative manner. The height of the twitch response to transmural stimulation was measured before and after drug challenge. The twitch response remaining after each sample addition was determined by dividing the height after its addition by the height before addition multiplied by 100. To obtain the percentage inhibition, this value was subtracted from 100. […] To investigate the involvement of opioid receptors in the inhibitory effect of the samples, the antagonistic effect of the opioid receptor antagonist naloxone was examined. The inhibitory effects of samples on electrically stimulated contraction were regarded as opioid activities when the antagonistic effect of naloxone was observed.

[1] = Gastrointestinal transit (charcoal meal), constipating effect after oral administration; format: in vivo; settings: mouse, in vivo; oral administration, mice; (95% confidence limits); read-out: ED50 inhibitory effect on gastrointestinal transit (GIT), constipating ED50
Procedure: (§1) The inhibition of gastrointestinal transit (%) was calculated as: Inhibition of gastrointestinal transit (%)=[(saline or vehicle GIT−drug GIT)/(saline or vehicle GIT)]×100. Each value represents mean±S.E.M. of 7 or 8 mice.
(§2) Mice were fasted, with water available ad libitum, for 18 h before the experiments. […] Thirty minutes after administration of the charcoal meal, the animal was sacrificed by cervical dislocation, and the small intestine from the pylorus to the ileocecum was carefully removed. Both the length of the small intestine from the pylorus to the ileocecum and the farthest distance to which the charcoal meal had traveled were measured. For each animal, the gastrointestinal transit (GIT) was calculated as the percentage of distance traveled by the charcoal meal relative to the total length of the small intestine. The inhibition of gastrointestinal transit (%) was calculated as: Inhibition of gastrointestinal transit (%)=[(saline or vehicle GIT−drug GIT)/(saline or vehicle GIT)]×100.
(§3) The data are expressed as the mean±S.E.M. Statistical analyses were performed with two-tailed Student's t-test for comparison of two groups, and by a one-way analysis of variance followed by a Bonferroni multiple comparison test for comparison of more than two groups. A P value <0.05 was considered statistically significant.

mice [2] = assay: Tail-flick test, analgesic effect after oral administration; format: in vivo; settings: for ED50: Mus musculus; for ED50 / ED50 analgesic effect (tail-flick): mice, (95% confidence limits); for times more potent analgesic effect than morphine: mouse tail-flick test
From the text: Analgesia was quantified using the percentage of maximum possible effect (% MPE) and calculated as: % MP=[(test latency−pre-drug latency)/(cut-off time−pre-drug latency)]×100. A cut-off time of 10 s was used to prevent tissue damage. Each value represents mean±S.E.M. of data obtained from 7 to 9 mice.
(§4) Mice respond to a focused heat stimulus by flicking or moving their tail from the path of the stimulus, thereby exposing a photocell located in the tail-flick analgesia meter (Ugo Basile Tail-flick Unit 7360, Ugo Basile, Comerio, Italy) immediately below the tail. The reaction time is automatically recorded. Prior to treatment with drugs, vehicle, or saline, the nociceptive threshold was measured three times, and the mean of the reaction time was used as the pre-drug latency for each mouse. A cut-off time of 10 s was used to prevent tissue damage. Analgesia was quantified using the percentage of maximum possible effect (% MPE) and calculated as: % MPE=[(test latency−pre-drug latency)/(cut-off time−pre-drug latency)]×100.
as §3

mice [3] = assay: Gastrointestinal transit (charcoal meal), constipating effect after oral administration; format: in vivo; settings: oral, GIT ED50 versus tail-flick ED50
Procedure: as §1, §2, §3

mice [4] = assay: Effects of opioid receptor antagonists on analgesia induced by s.c. administration, mouse tail-flick test; format: in vivo; settings: s.c. compound; for effect of naloxone on analgesic effect: non-selective opioid antagonist naloxone, data not shown; for effect of naltrindole on analgesic effect: δ-opioid receptor selective antagonist NTI 3 mg/kg; for effect of nor-binaltorphimine on analgesic effect: κ-opioid receptor selective antagonist norBNI 20 mg/kg; for effect of β-funaltrexamine on analgesic effect: μ-opioid receptor selective antagonist β-FNA 40 mg/kg
Procedure: The analgesic effects were determined in the mouse tail-flick test after s.c. administration of the following antagonists: β-funaltrexamine (β-FNA, 40 mg/kg), naltrindole (NTI, 3 mg/kg), and nor-binaltorphimine (norBNI, 20 mg/kg). Measurements were performed 15 min after s.c. administration of compound 11, compound 26 and compound 27. […] Each value represents mean±S.E.M. of 8 or 9 mice.
as §4

[5] = read-out: Inhibitory activity (%)
[6] = read-out: Maximum inhibition (%)

Row | Compound | Emax (guinea pig ileum; [5]) [%] | Emax (guinea pig ileum; [6]) [%] | EC50 (guinea pig ileum) [nM] | Relative Potency (%) (guinea pig ileum) | other results
1 | C[C@@]12Nc3ccccc3[C@]1(C)OCCO2 |  |  |  |  | melting point: 79 to 81 °C
2 | c1ccc2c(c1)N[C@]13CCCC[C@]21OCCO3 |  |  |  |  | melting point: 156 to 157 °C
3 | CC[C@@H]1CN2CC[C@@]3(O)C(=Nc4cccc(OC)c43)[C@@H]2C[C@@H]1/C(=C\OC)C(=O)OC [Compound 1, 7-hydroxymitragynine, reference compound] | 104 | 90.8 ± 3.4 | 16.6 | 426 | ED50 [1]: 7.5 mg/kg; ED50 (mice [2]): 4.43 mg/kg; times more potent analgesic effect than morphine (mice [2]): 14 times
4 | CC[C@@H]1CN2CCc3c([nH]c4cccc(OC)c34)[C@@H]2C[C@@H]1/C(=C\OC)C(=O)OC [Compound 2, Mitragynine, reference compound] | 83 | 72 ± 5 | 316 | 22 | 
5 | CC[C@@H]1CN2CC[C@@]34OCCO[C@@]3(Nc3cccc(OC)c34)[C@@H]2C[C@@H]1/C(=C\OC)C(=O)OC [Compound 3] | 40 | 35 ± 11 | 20 | 354 | 
6 | CC[C@@H]1CN2CC[C@@]34OCCO[C@@]3(Nc3ccc(F)c(OC)c34)[C@@H]2C[C@@H]1/C(=C\OC)C(=O)OC [Compound 11] | 96 | 83.4 ± 3.2 | 3.98 | 1778 | ED50 [1]: 11.1 mg/kg; constipating ED50 times larger than analgesic ED50 (mice [3]): 4 times; effect of naloxone on analgesic effect (mice [4]): completely blocked; effect of naltrindole on analgesic effect (mice [4]): ineffective; effect of nor-binaltorphimine on analgesic effect (mice [4]): markedly inhibited; effect of β-funaltrexamine on analgesic effect (mice [4]): markedly inhibited; ED50 (mice [2]): 2.84 mg/kg; times more potent analgesic effect than morphine (mice [2]): 22 times
7 | CC[C@@H]1CN2CC[C@@]34OCCO[C@@]3(Nc3ccc(Cl)c(OC)c34)[C@@H]2C[C@@H]1/C(=C\OC)C(=O)OC [Compound 12a] |  |  |  | 288 | Inhibitory activity (%) (guinea pig ileum): 55%; pD2 value (−log M) (guinea pig ileum): 7.61 ± 0.17 −log M; Maximum inhibition (%) (guinea pig ileum): 48.1 ± 9.3%
8 | CC[C@@H]1CN2CC[C@@]34OCCO[C@@]3(Nc3ccc([N+](=O)[O-])c(OC)c34)[C@@H]2C[C@@H]1/C(=C\OC)C(=O)OC [Compound 14a] |  |  |  | 537 | Inhibitory activity (%) (guinea pig ileum): 75%; pD2 value (−log M) (guinea pig ileum): 7.88 ± 0.18 −log M; Maximum inhibition (%) (guinea pig ileum): 65.0 ± 4.3%
9 | CC[C@@H]1CN2CC[C@@]3(O)C(=Nc4ccc(F)c(OC)c43)[C@@H]2C[C@@H]1/C(=C\OC)C(=O)OC [Compound 22, 7-Hydroxy-10-fluoromitragynine] | 95 | 82.5 ± 1.8 | 13.5 | 524 | 
10 | CC[C@@H]1CN2CC[C@@]3(O)C(=Nc4ccc(Cl)c(OC)c43)[C@@H]2C[C@@H]1/C(=C\OC)C(=O)OC [Compound 23, 7-Hydroxy-10-chloromitragynine] | 86 | 74.8 ± 3 | 29.5 | 239 | 
11 | CC[C@@H]1CN2CC[C@@]3(O)C(=Nc4ccc(Br)c(OC)c43)[C@@H]2C[C@@H]1/C(=C\OC)C(=O)OC [Compound 24, 7-Hydroxy-10-bromomitragynine] | 71 | 61.7 ± 6.2 | 35.5 | 199 | 
12 | CCC1CN2CCC3(O)c4c(ccc(F)c4OC)NC3C2CC1C(=COC)C(=O)OC (centres unmarked) [Compound 27] |  |  |  | 4571 | Inhibitory activity (%) (guinea pig ileum): 102%; pD2 value (−log M) (guinea pig ileum): 8.81 ± 0.09 −log M; Maximum inhibition (%) (guinea pig ileum): 89.0 ± 2.3%; effect of naloxone on analgesic effect (mice [4]): completely blocked; effect of naltrindole on analgesic effect (mice [4]): moderately inhibited; effect of nor-binaltorphimine on analgesic effect (mice [4]): had no effect; effect of β-funaltrexamine on analgesic effect (mice [4]): markedly inhibited; ED50 analgesic effect (tail-flick) (mice [2]): 0.263 (0.165-0.420) mg/kg; ED50 analgesic effect (tail-flick) (mice [2]; listed as compound 27): 0.26 mg/kg; times more potent analgesic effect than morphine (mice [2]): 240 times
13 | CN1CC[C@]23c4c5ccc(O)c4O[C@H]2[C@@H](O)C=C[C@H]3[C@H]1C5 [Morphine, reference compound] | 100 | 87.2 ± 1.8 |  |  | ED50 [1]: 11.7 mg/kg; constipating ED50 times smaller than analgesic ED50 (mice [3]): 5 times; ED50 (mice [2]): 63 mg/kg
